# According to US12553889B2, “Small molecules targeting the intrinsically disordered structural ensemble of α-synuclein protect against diverse α-synuclein mediated dysfunctions” (The Regents of the University of California, priority 2019, dated 2026):
# Entries after “also recorded” stand apart in the source; their conditions may differ.
# Columns and labels:
# [1] = test system: H4 neuroglioma cells over-expressing αSyn; test: Phagocytosis assay; assay type: cell-based, human; conditions: for phagocytosis restored, percent of that in cells with endogenous αSyn levels (control): phagocytosis inhibited by αSyn overexpression; for reversal of αSyn mediated inhibition of phagocytosis: 100 nM
# Description: A human neuroglioma H4 cell-derived cell line stably over-expressing αSyn from a tetracycline inducible promoter was generated using the tet inducible TRex system (Invitrogen division of Life Technologies) and grown in serum-free X-VIVO media (Lonza Group, Basel, Switzerland). Cells were seeded in 96-well plates at densities yielding 75 to 90% confluency during the phagocytosis assay. The next day, compound was added along with 5 μg/ml tetracycline to induce αSyn overexpression. Cells were cultured overnight and the next day were fed […] red fluorescent beads (Invitrogen, Carlsbad, CA) for 90 minutes at a cell-to-bead ratio of 1:10. Plates were gently washed with 100 μl/well media twice, fixed and stained with HEMA3 (Thermo Fisher, Waltham, MA). Plates were dried overnight and read on an ArrayScan (Thermo Fisher, Waltham, MA). As the HEMA3 stain absorbs light, the internalized beads are less fluorescent than the outside beads. Tet/non-tet and 484228 samples were run on each plate.
# [2] = test system: H4 neuroglioma cells over-expressing αSyn; conditions: earlier report; cited from earlier work
# αSyn [3] = molecular target: T1, αSyn (Homo sapiens, UniProt P37840); design: made in house; host or cells: E. coli; conditions: prior study (Toth et al 2014); cited from earlier work
# αSyn [4] = molecular target: T1, αSyn; design: made in house; host or cells: E. coli; conditions: prior study (Toth et al 2014); cited from earlier work; remark: listed apart in the source
# αSyn [5] = molecular target: T1, αSyn; test: αSyn fibrillization assay (Thioflavin T fluorescence); assay type: biochemical; design: made in house; host or cells: E. coli BL21(DE3), pET-21d; conditions: compound at 300 μM, 70 μM αSyn, vs 0.5% DMSO control
# Description: Fibrillization assays. Prior to each aggregation assay, purified αSyn at 5 mg/mL was treated with 6M guanidine and dialyzed 36 hours in a 3500 MW cutoff Slide-A-lyzer with three changes of 20 mM sodium phosphate and 100 mM NaCl pH 7.4 buffer. αSyn was centrifuged at 130,000 g for 40 minutes in a Beckman Ultracentrifuge to remove seeding species and supernatant used for assays. For initial testing, 60 mM compound in DMSO was diluted to 300 μM in 0.5% DMSO and controls contained equivalent DMSO concentrations. Assay samples contained 20 μM Thioflavin T, filtered through a 0.45 μm Acrodisc filter prior to each assay, 70 μM αSyn in 20 mM sodium phosphate and 100 mM NaCl pH 7.4. One teflon bead, (0.125″ PTFE, Grade 2 polished) was placed in each well of a 96 well black with clear bottom assay plate (Corning) in a total volume of 500 μL. The plate was sealed with Mylar and parafilm, placed at 37° C. in a Tecan F200Pro Plate Reader and shaken at an amplitude of 6 mm for 120 hours continuously except for a brief time during reading of the plate. Thioflavin T fluorescence was detected by excitation at 440 nm and reading emissions at 485 nm each 60 minutes throughout the assay. To generate αSyn seeds for the seeding assays, αSyn at 10 mg/mL was incubated with stirring at 43° C. for 24 hours followed by exhaustive sonication. 1% (by mass) of seeds were added to the fibrillization assay. Samples were plated in quadruplicate, and the replicates averaged for each experiment for plotted data. Data were analyzed in Excel using XL-fit sigmoidal model #600 and when normalized, comparing fluorescence values at 50 hours for compounds as a percentage of DMSO control.
# α-Syn for the Fibrillization assay. Wildtype human αSyn was produced from a pET-21d plasmid (Millipore, Burlington, MA) in E. coli BL21(DE3) cells induced by addition of 1 mM […] and incubated at 16° C. overnight. Cells were harvested by centrifugation at 4,000×g for 10 minutes and stored at −80° C. Frozen cells expressing αSyn protein were resuspended in 50 mM Tris, pH 7.5, 1 mM TCEP, 1 mM EDTA, and 1 mM L-Methionine and lysed using a microfluidizer. Lysate was centrifuged at 7000×g for 0.5 hours at 21° C. The supernatant was boiled in a water bath for 15 minutes, cooled on ice and centrifuged at 45,000 g for 30 min. The supernatant was filtered through a 0.2 μm Corning filter and subjected to ion exchange chromatography using a Capto ImpRes Q (GE Healthcare, Upssala, Sweden) anion exchange (IEX) column at ambient temperature. The column was eluted with a gradient of 100 column volumes from 0 to 1M NaCl using an AKTA Explorer 100 Liquid Chromatography System (GE Healthcare, Uppsala, Sweden). Pure αSyn fractions were desalted to 50 mM KPO4, pH 7.5 and 50 mM NaCl using PD-10 columns (GE Healthcare, Chicago, IL) and concentrated to 5 mg/mL or 10 mg/ml (3K MWCO, Amicon Ultra, Millipore, Burlington, MA).
# Statistical Analysis of compound activity in Fibrillization assays. For the analyses of compound activity in the αSyn fibrillization assay, the relative fluorescence unit (RFU) data obtained from compounds were compared to those of DMSO, to identify those that are statistically different from DMSO at various time points. Each experiment contained 4 replicates of each compound and of DMSO control. […] A repeated measures analysis of variance was performed on logarithmic transformed data using a linear mixed effects model which included Compound, Time, Replicate (Compound) and Compound*Time. The covariance structure across time that minimized the corrected Akaike Information Criterion (AICC) was used and the Kenward and Roger method was used to determine the appropriate degrees of freedom. Each compound mean was compared to the DMSO mean using Bonferroni multiplicity adjusted t-tests. Statistical analyses were conducted using the MIXED procedure in SAS 9.1 (SAS Institute Inc. Cary, NC, USA). Statistical significance refers to p-value<0.05.
SMILES,"phagocytosis restored, percent of that in cells with endogenous αSyn levels (control) [1]",impact on αSyn fibrillization (thioflavin fluorescence signal) (αSyn [5]),reversal of αSyn mediated inhibition of phagocytosis [1],further results
"O=S(=O)(Nc1ccc(F)cc1)c1ccccc1 [Compound 484228, N-(4-fluorophenyl)benzenesulfonamide]",≤ 80%,,,restoration of phagocytosis in the face of αSyn overexpression [2]: restored normal phagocytosis; reversal of αSyn over-expression mediated neurodegeneration (αSyn [3]): protective activity; impact on aggregation of the recombinant protein (αSyn [4]): without impact on aggregation
"CNC(=O)C[C@H](N)Cc1cccc2ccccc12 [Compound 573416, (R)-3-amino-N-methyl-4-(naphthalen-1-yl)butanamide]",,no impact on αSyn fibrillization,,
"NC(=O)[C@H](Cc1c[nH]cn1)NC(=O)c1ccccn1 [Compound 573418, (S)-N-(1-amino-3-(1H-imidazol-4-yl)-1-oxopropan-2-yl)picolinamide]",,,complete reversal,
"NC(=O)[C@@H](NC(=O)c1csc(-c2ccccc2)n1)C1CCCCC1 [Compound 573419, (S)-N-(2-amino-1-cyclohexyl-2-oxoethyl)-2-phenylthiazole-4-carboxamide]",,,complete reversal,
"CNC(=O)CC(N)c1ccc(-c2ccccc2)cc1 (stereo not drawn) [Compound 581674, 3-([1,1′-biphenyl]-4-yl)-3-amino-N-methylpropanamide]",100%,inhibit fibrillization; also recorded: blocks αSyn fibrillization,,
